Test results published in patent US8435980B2 (AbbVie Inc., priority 2009, dated 2013).

target: T1, Cdc7 (BEV coexpressed huCDC7/DBF4) (Homo sapiens, UniProt O00311); assay: Cdc7 enzyme inhibition assay ([33P]ATP, biotinylated peptide substrate, FlashPlate); type: biochemical; conditions: Table 3; enzyme inhibition data (Ki)
T1 construct: made in house; host or cells: BEV (baculovirus expression vector) co-expression; insect cells are implied but no cell line is named
Description: Cdc7 (BEV coexpressed huCDC7/DBF4) is prepared internally. Cdc7 assays are conducted as follows with final concentrations as listed. […] Reactions are quenched after 1 hr by the addition of 90 μL stop buffer (50 mM EDTA, 2M NaCl). […] (Ki) for exemplary compounds.

T1 sequence (O00311 whole entry): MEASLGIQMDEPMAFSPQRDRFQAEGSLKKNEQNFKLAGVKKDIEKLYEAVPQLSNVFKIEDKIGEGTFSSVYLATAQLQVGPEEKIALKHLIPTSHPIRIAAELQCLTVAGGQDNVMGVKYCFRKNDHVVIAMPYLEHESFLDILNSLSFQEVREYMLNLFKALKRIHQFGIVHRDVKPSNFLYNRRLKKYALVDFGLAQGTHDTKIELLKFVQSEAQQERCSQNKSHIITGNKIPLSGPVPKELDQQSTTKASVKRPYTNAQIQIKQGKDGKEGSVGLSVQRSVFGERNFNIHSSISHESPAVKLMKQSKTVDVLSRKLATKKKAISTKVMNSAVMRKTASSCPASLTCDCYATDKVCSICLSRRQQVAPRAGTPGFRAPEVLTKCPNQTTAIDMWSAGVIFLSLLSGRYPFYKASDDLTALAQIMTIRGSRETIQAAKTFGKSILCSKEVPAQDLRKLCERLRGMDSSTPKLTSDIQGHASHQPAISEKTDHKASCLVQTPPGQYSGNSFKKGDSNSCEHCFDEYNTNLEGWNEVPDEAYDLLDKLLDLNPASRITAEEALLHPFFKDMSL
T1 sequence (Q9UBU7 whole entry partner): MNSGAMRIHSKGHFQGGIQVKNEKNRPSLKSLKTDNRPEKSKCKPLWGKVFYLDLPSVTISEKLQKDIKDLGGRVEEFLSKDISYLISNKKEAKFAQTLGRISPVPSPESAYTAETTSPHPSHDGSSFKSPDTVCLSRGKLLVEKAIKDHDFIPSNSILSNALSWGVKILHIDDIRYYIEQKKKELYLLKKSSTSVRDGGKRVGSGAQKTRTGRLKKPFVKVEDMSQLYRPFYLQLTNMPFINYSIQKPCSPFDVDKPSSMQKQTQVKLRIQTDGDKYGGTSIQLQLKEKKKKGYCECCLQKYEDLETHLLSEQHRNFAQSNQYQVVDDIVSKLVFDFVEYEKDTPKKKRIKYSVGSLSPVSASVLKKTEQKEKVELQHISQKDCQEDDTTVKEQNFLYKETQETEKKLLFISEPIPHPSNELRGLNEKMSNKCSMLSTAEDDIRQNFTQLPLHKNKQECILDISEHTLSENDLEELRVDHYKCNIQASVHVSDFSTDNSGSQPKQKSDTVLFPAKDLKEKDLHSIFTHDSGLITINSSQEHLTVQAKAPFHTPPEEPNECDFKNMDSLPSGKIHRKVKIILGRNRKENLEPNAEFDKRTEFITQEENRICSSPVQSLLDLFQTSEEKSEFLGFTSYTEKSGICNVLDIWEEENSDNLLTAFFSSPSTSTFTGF

SMILES | Ki [nM]
O=C(NCCS(=O)(=O)NC1CCCC(Nc2cc(-c3c[nH]c4ncccc34)cc(Cl)n2)C1)c1cnccn1 (stereo not shown) [Example 172, N-{2-[(3-{[6-chloro-4-(1H-pyrrolo[2,3-b]pyridin-3-yl)pyridin-2-yl]amino}cyclohexyl)sulfamoyl]ethyl}pyrazine-2-carboxamide] | < 10
Clc1cc(-c2c[nH]c3ncc(Br)cc23)cc(NC2CCCCC2)n1 [Example 173, 4-(5-bromo-1H-pyrrolo[2,3-b]pyridin-3-yl)-6-chloro-N-cyclohexylpyridin-2-amine] | < 10
CC(=O)NC1CCC(CC2CCC(Nc3cc(-c4c[nH]c5ncccc45)cc(Cl)n3)CC2)CC1 (stereo not shown) [Example 174, N-{4-[(4-{[6-chloro-4-(1H-pyrrolo[2,3-b]pyridin-3-yl)pyridin-2-yl]amino}cyclohexyl)methyl]cyclohexyl}acetamide] | < 10
O=C(C1CC1)N1CCC(NC2CCC(Nc3cc(-c4c[nH]c5ncccc45)cc(Cl)n3)CC2)CC1 (stereo not shown) [Example 175, {4-[(4-{[6-chloro-4-(1H-pyrrolo[2,3-b]pyridin-3-yl)pyridin-2-yl]amino}cyclohexyl)amino]piperidin-1-yl}(cyclopropyl)methanone] | < 10
Cn1cc(-c2cnc3[nH]cc(-c4cc(Cl)nc(NC5CCCCC5)c4)c3c2)cn1 [Example 176, 6-chloro-N-cyclohexyl-4-[5-(1-methyl-1H-pyrazol-4-yl)-1H-pyrrolo[2,3-b]pyridin-3-yl]pyridin-2-amine] | < 10
COc1cnc2[nH]cc(-c3cc(Cl)nc(NC4CCCCC4)c3)c2c1 [Example 178, 6-chloro-N-cyclohexyl-4-(5-methoxy-1H-pyrrolo[2,3-b]pyridin-3-yl)pyridin-2-amine] | < 10
NCCS(=O)(=O)N[C@H]1CC[C@H](Nc2cc(-c3c[nH]c4ncccc34)cc(Cl)n2)CC1 [Example 179, 2-amino-N-(trans-4-{[6-chloro-4-(1H-pyrrolo[2,3-b]pyridin-3-yl)pyridin-2-yl]amino}cyclohexyl)ethanesulfonamide] | < 10
Oc1cnc2[nH]cc(-c3cc(Cl)nc(NC4CCCCC4)c3)c2c1 [Example 180, 3-[2-chloro-6-(cyclohexylamino)pyridin-4-yl]-1H-pyrrolo[2,3-b]pyridin-5-ol] | < 10
Clc1cc(-c2c[nH]c3ncccc23)cc(NC2CCC(C3CCCNC3)CC2)n1 (stereo not shown) [Example 181, 6-chloro-N-[4-(piperidin-3-yl)cyclohexyl]-4-(1H-pyrrolo[2,3-b]pyridin-3-yl)pyridin-2-amine] | < 10
Clc1cc(-c2c[nH]c3ncccc23)cc(NC2CCC(C3CCN(C4CCC4)CC3)CC2)n1 (stereo not shown) [Example 182, 6-chloro-N-[4-(1-cyclobutylpiperidin-4-yl)cyclohexyl]-4-(1H-pyrrolo[2,3-b]pyridin-3-yl)pyridin-2-amine] | < 10
CS(=O)(=O)N1CCC(C2CCC(Nc3cc(-c4c[nH]c5ncccc45)cc(Cl)n3)CC2)CC1 (stereo not shown) [Example 183, 6-chloro-N-{4-[1-(methylsulfonyl)piperidin-4-yl]cyclohexyl}-4-(1H-pyrrolo[2,3-b]pyridin-3-yl)pyridin-2-amine] | < 10
CN1CCC(C2CCC(Nc3cc(-c4c[nH]c5ncccc45)cc(Cl)n3)CC2)CC1 (stereo not shown) [Example 184, 6-chloro-N-[4-(1-methylpiperidin-4-yl)cyclohexyl]-4-(1H-pyrrolo[2,3-b]pyridin-3-yl)pyridin-2-amine] | < 10
CN1CCC(C2CCC(N(C)c3cc(-c4c[nH]c5ncccc45)cc(Cl)n3)CC2)CC1 (stereo not shown) [Example 185, 6-chloro-N-methyl-N-[4-(1-methylpiperidin-4-yl)cyclohexyl]-4-(1H-pyrrolo[2,3-b]pyridin-3-yl)pyridin-2-amine] | < 10
CS(=O)(=O)N1CCCC(C2CCC(Nc3cc(-c4c[nH]c5ncccc45)cc(Cl)n3)CC2)C1 (stereo not shown) [Example 186, 6-chloro-N-{4-[1-(methylsulfonyl)piperidin-3-yl]cyclohexyl}-4-(1H-pyrrolo[2,3-b]pyridin-3-yl)pyridin-2-amine] | < 10
Clc1cc(-c2c[nH]c3ncc(-c4cnn(CCN5CCOCC5)c4)cc23)cc(NC2CCCCC2)n1 [Example 187, 6-chloro-N-cyclohexyl-4-(5-{1-[2-(morpholin-4-yl)ethyl]-1H-pyrazol-4-yl}-1H-pyrrolo[2,3-b]pyridin-3-yl)pyridin-2-amine] | < 10
O=C(C1CC1)N1CCCC(C2CCC(Nc3cc(-c4c[nH]c5ncccc45)cc(Cl)n3)CC2)C1 (stereo not shown) [Example 188, [3-(4-{[6-chloro-4-(1H-pyrrolo[2,3-b]pyridin-3-yl)pyridin-2-yl]amino}cyclohexyl)piperidin-1-yl](cyclopropyl)methanone] | < 10
Clc1cc(-c2c[nH]c3ncccc23)cc(NC2CCC(C3CCCN(C4CCC4)C3)CC2)n1 (stereo not shown) [Example 189, 6-chloro-N-[4-(1-cyclobutylpiperidin-3-yl)cyclohexyl]-4-(1H-pyrrolo[2,3-b]pyridin-3-yl)pyridin-2-amine] | < 10
Clc1cc(-c2c[nH]c3ncccc23)cc(NC2CCC(C3CCNC3)CC2)n1 (stereo not shown) [Example 190, 6-chloro-N-[4-(pyrrolidin-3-yl)cyclohexyl]-4-(1H-pyrrolo[2,3-b]pyridin-3-yl)pyridin-2-amine] | < 10
CN1CCC(N2CCC(Nc3cc(-c4c[nH]c5ncccc45)cc(Cl)n3)CC2)CC1 [Example 191, N-[6-chloro-4-(1H-pyrrolo[2,3-b]pyridin-3-yl)pyridin-2-yl]-1′-methyl-1,4′-bipiperidin-4-amine] | < 10

More lines, now with the values ahead:

Ki [nM] | SMILES
< 10 | O=C(NCCS(=O)(=O)N[C@H]1CC[C@H](Nc2cc(-c3c[nH]c4ncccc34)cc(Cl)n2)CC1)c1ccccc1 [Example 193, N-{2-[(trans-4-{[6-chloro-4-(1H-pyrrolo[2,3-b]pyridin-3-yl)pyridin-2-yl]amino}cyclohexyl)sulfamoyl]ethyl}benzamide]
< 10 | CS(=O)(=O)NCCS(=O)(=O)N[C@H]1CC[C@H](Nc2cc(-c3c[nH]c4ncccc34)cc(Cl)n2)CC1 [Example 194, N-(trans-4-{[6-chloro-4-(1H-pyrrolo[2,3-b]pyridin-3-yl)pyridin-2-yl]amino}cyclohexyl)-2-[(methylsulfonyl)amino]ethanesulfonamide]
< 10 | Clc1cc(-c2c[nH]c3ncc(OCCN4CCOCC4)cc23)cc(NC2CCCCC2)n1 [Example 195, 6-chloro-N-cyclohexyl-4-{5-[2-(morpholin-4-yl)ethoxy]-1H-pyrrolo[2,3-b]pyridin-3-yl}pyridin-2-amine]
< 10 | Cn1cncc1COc1cnc2[nH]cc(-c3cc(Cl)nc(NC4CCCCC4)c3)c2c1 [Example 196, 6-chloro-N-cyclohexyl-4-{5-[(1-methyl-1H-imidazol-5-yl)methoxy]-1H-pyrrolo[2,3-b]pyridin-3-yl}pyridin-2-amine]
< 10 | CN1CCC(C2CCC(Nc3cc(-c4c[nH]c5ncccc45)cc(Cl)n3)CC2)C1 (stereo not shown) [Example 197, 6-chloro-N-[4-(1-methylpyrrolidin-3-yl)cyclohexyl]-4-(1H-pyrrolo[2,3-b]pyridin-3-yl)pyridin-2-amine]
< 10 | Fc1ccc(CN2CCC(C3CCC(Nc4cc(-c5c[nH]c6ncccc56)cc(Cl)n4)CC3)C2)cc1 (stereo not shown) [Example 198, 6-chloro-N-{4-[1-(4-fluorobenzyl)pyrrolidin-3-yl]cyclohexyl}-4-(1H-pyrrolo[2,3-b]pyridin-3-yl)pyridin-2-amine]
< 10 | CS(=O)(=O)N1CCC(C2CCC(Nc3cc(-c4c[nH]c5ncccc45)cc(Cl)n3)CC2)C1 (stereo not shown) [Example 199, 6-chloro-N-{4-[1-(methylsulfonyl)pyrrolidin-3-yl]cyclohexyl}-4-(1H-pyrrolo[2,3-b]pyridin-3-yl)pyridin-2-amine]
< 10 | Clc1cc(-c2c[nH]c3ncccc23)cc(NC2CCN(C3CCC(NC4CCC4)CC3)CC2)n1 (stereo not shown) [Example 200, 6-chloro-N-{1-[4-(cyclobutylamino)cyclohexyl]piperidin-4-yl}-4-(1H-pyrrolo[2,3-b]pyridin-3-yl)pyridin-2-amine]
10 to 100 | N#Cc1cnc2[nH]cc(-c3cc(Cl)nc(NC4CCCCC4)c3)c2c1 [Example 201, 3-[2-chloro-6-(cyclohexylamino)pyridin-4-yl]-1-1H-pyrrolo[2,3-b]pyridine-5-carbonitrile]
< 10 | O=C(N[C@H]1CC[C@H](Nc2cc(-c3c[nH]c4ncccc34)cc(Cl)n2)CC1)c1ccc(F)cc1F [Example 202, N-(trans-4-{[6-chloro-4-(1H-pyrrolo[2,3-b]pyridin-3-yl)pyridin-2-yl]amino}cyclohexyl)-2,4-difluorobenzamide]
10 to 100 | O=C(N[C@H]1CC[C@H](Nc2cc(-c3c[nH]c4ncccc34)cc(Cl)n2)CC1)c1ccc(OC(F)(F)F)cc1 [Example 203, N-(trans-4-{[6-chloro-4-(1H-pyrrolo[2,3-b]pyridin-3-yl)pyridin-2-yl]-amino}cyclohexyl)-4-(trifluoromethoxy)benzamide]
< 10 | Cc1cnc2[nH]cc(-c3cc(Cl)nc(NC4CCCCC4)c3)c2c1 [Example 204, 6-chloro-N-cyclohexyl-4-(5-methyl-1H-pyrrolo[2,3-b]pyridin-3-yl)pyridin-2-amine]
< 10 | Clc1cc(-c2c[nH]c3ncccc23)cc(Nc2ccccc2)n1 [Example 205, 6-chloro-N-phenyl-4-(1H-pyrrolo[2,3-b]pyridin-3-yl)pyridin-2-amine]
< 10 | COc1cc(N2CCC(N3CCN(C)CC3)CC2)ccc1Nc1cc(-c2c[nH]c3ncccc23)cc(Cl)n1 [Example 206, 6-chloro-N-{2-methoxy-4-[4-(4-methylpiperazin-1-yl)piperidin-1-yl]phenyl}-4-(1H-pyrrolo[2,3-b]pyridin-3-yl)pyridin-2-amine]
< 10 | O=C(N[C@H]1CC[C@H](Nc2cc(-c3c[nH]c4ncccc34)cc(Cl)n2)CC1)C1CN(Cc2ccc(Cl)cc2)C1 [Example 207, 1-(4-chlorobenzyl)-N-(trans-4-{[6-chloro-4-(1H-pyrrolo[2,3-b]pyridin-3-yl)pyridin-2-yl]amino}cyclohexyl)azetidine-3-carboxamide]
